Measured values: patent US20190374563A1, “TREATMENT OF KLEBSIELLA PNEUMONIAE INFECTIONS WITH ANTIBACTERIAL AMINOGLYCOSIDE COMPOUNDS” (Achaogen, Inc., priority 2009, published 2019)
Values after ≈ are worked out from the molar mass of the structure shown.

Legend:
[1] = tested on: P. aeruginosa ATCC 27853 (APAE001); test: MIC assay, CLSI broth microdilution; format: cell-based; conditions: Pseudomonas aeruginosa, ATCC27853, read-out: MIC APAE001
Procedure: (§1) Minimum inhibitory concentrations (MIC) were determined by reference Clinical and Laboratory Standards Institute (CLSI) broth microdilution methods per M7-A7 [2006]. Quality control ranges utilizing E. coli ATCC 25922, P. aeruginosa ATCC 27853 and S. aureus ATCC 29213, and interpretive criteria for comparator agents were as published in CLSI M100-S17 [2007]. Briefly, serial two-fold dilutions of the test compounds were prepared at 2× concentration in Mueller Hinton Broth. The compound dilutions were mixed in 96-well assay plates in a 1:1 ratio with bacterial inoculum. The inoculum was prepared by suspension of a colony from an agar plate that was prepared the previous day. Bacteria were suspended in sterile saline and added to each assay plate to obtain a final concentration of 5×10^5 CFU/mL. The plates were incubated at 35° C. for 20 hours in ambient air.

[2] = tested on: E. coli ATCC 25922 (AECO001); test: MIC assay, CLSI broth microdilution; format: cell-based; conditions: Escherichia coli, ATCC25922, read-out: MIC AECO001
Procedure: as §1

Structure (SMILES) | MIC [1] [µg/mL] | MIC [2] [µg/mL]
CN[C@@H]1[C@@H](O)[C@@H](O[C@@H]2[C@@H](O)[C@H](O[C@H]3OC(CNCCCCCN)=CC[C@H]3N)[C@@H](N)C[C@H]2NC(=O)[C@@H](O)CCN)OC[C@]1(C)O [Example 44, 6′-(5-Amino-pentyl)-1-(4-amino-2(S)-hydroxy-butyryl)-sisomicin] | 1 to 16 (≈ 1.58 to 25.2 µM) | < 1
CN[C@@H]1[C@@H](O)[C@@H](O[C@@H]2[C@@H](O)[C@H](O[C@H]3OC(CNCC(O)CO)=CC[C@H]3N)[C@@H](N)C[C@H]2NC(=O)[C@H](O)CCN)OC[C@]1(C)O (stereo partly drawn) [Example 3, 6′-(2-Hydroxy-propanol)-1-(4-amino-2(R)-hydroxy-butyryl)-sisomicin] | > 16 | 1 to 16 (≈ 1.61 to 25.7 µM)
CN[C@@H]1[C@@H](O)[C@@H](O[C@@H]2[C@@H](O)[C@H](O[C@H]3OC(CNCCO)=CC[C@H]3N)[C@@H](N)C[C@H]2NC(=O)C(O)C2CNC2)OC[C@]1(C)O (stereo partly shown) [Example 75, 6′-(2-Hydroxy-ethyl)-1-(2-(azetidin-3-yl)-2-hydroxy-acetyl)-sisomicin] | > 16 | 1 to 16 (≈ 1.65 to 26.5 µM)
CN[C@@H]1[C@@H](O)[C@@H](O[C@@H]2[C@@H](O)[C@H](O[C@H]3OC(CNC[C@@H]4C[C@H](N)CN4)=CC[C@H]3N)[C@@H](N)C[C@H]2NC(=O)[C@@H](O)CN)OC[C@]1(C)O [Example 65, 6′-(Methyl-4(S)-amino-pyrrolidin-2(S)-yl)-1-(3-amino-2(S)-hydroxy-propionyl)-sisomicin] | 1 to 16 (≈ 1.58 to 25.3 µM) | 1 to 16 (≈ 1.58 to 25.3 µM)
CN[C@@H]1[C@@H](O)[C@@H](O[C@@H]2[C@@H](O)[C@H](O[C@H]3OC(CN)=CC[C@H]3NC[C@H](C)N)[C@@H](N)C[C@H]2NC(=O)[C@@H](O)CCN)OC[C@]1(C)O [Example 95, 2′-(2(S)-Amino-propyl)-1-(4-amino-2(S)-hydroxy-butyryl)-sisomicin] | > 16 | < 1
CN[C@@H]1[C@@H](O)[C@@H](O[C@@H]2[C@@H](O)[C@H](O[C@H]3OC(CNCC4(O)CC(N)C4)=CC[C@H]3N)[C@@H](N)C[C@H]2NC(=O)[C@@H](O)CCN)OC[C@]1(C)O (stereo partly shown) [Example 46] | 1 to 16 (≈ 1.54 to 24.7 µM) | < 1
CN[C@@H]1[C@@H](O)[C@@H](O[C@@H]2[C@@H](O)[C@H](O[C@H]3OC(CNCC(O)CN)=CC[C@H]3N)[C@@H](N)C[C@H]2NC(=O)C(O)C2CNC2)OC[C@]1(C)O (stereo partly shown) [Example 82, 6′-(2-Hydroxy-3-amino-propyl)-1-(2-(azetidin-3-yl)-2-hydroxy-acetyl)-sisomicin] | > 16 | 1 to 16 (≈ 1.58 to 25.2 µM)
CN[C@@H]1[C@@H](O)[C@@H](O[C@@H]2[C@@H](O)[C@H](O[C@H]3OC(CNCC4CC4)=CC[C@H]3N)[C@@H](N)C[C@H]2NC(=O)C2(O)CCNC2)OC[C@]1(C)O (stereo partly shown) [Example 41] | 1 to 16 (≈ 1.63 to 26 µM) | < 1
CNCC(=O)N[C@@H]1CC=C(CN)O[C@@H]1O[C@H]1[C@H](O)[C@@H](O[C@H]2OC[C@](C)(O)[C@H](NC)[C@H]2O)[C@H](NC(=O)[C@@H](O)CCN)C[C@@H]1N [Example 86, 2′-(N-methyl-amino-acetyl)-1-(4-amino-2(S)-hydroxy-butyryl)-sisomicin] | 1 to 16 (≈ 1.61 to 25.8 µM) | 1 to 16 (≈ 1.61 to 25.8 µM)
CN[C@@H]1[C@@H](O)[C@@H](O[C@@H]2[C@@H](O)[C@H](O[C@H]3OC(CNCC(C)(C)N)=CC[C@H]3N)[C@@H](N)C[C@H]2NC(=O)[C@@H](O)CN)OC[C@]1(C)O [Example 55, 6′-(2-Methyl-2-amino-propyl)-1-(3-amino-2(S)-hydroxy-propionyl)-sisomicin] | > 16 | 1 to 16 (≈ 1.65 to 26.4 µM)
CN[C@@H]1[C@@H](O)[C@@H](O[C@@H]2[C@@H](O)[C@H](O[C@H]3OC(CN)=CC[C@H]3NCC(N)CO)[C@@H](N)C[C@H]2NC(=O)[C@@H](O)CCN)OC[C@]1(C)O (stereo partly drawn) [Example 97, 2′-(2-Amino-propanol)-1-(4-amino-2(S)-hydroxy-butyryl)-sisomicin] | 1 to 16 (≈ 1.61 to 25.7 µM) | < 1
